{
  "source": "patent US8835377B2",
  "about": "“Oral delivery of peptide pharmaceutical compositions” (UGP Therapeutics, Inc., priority 2004, dated 2014)",
  "experiment": "Pharmacokinetics after oral capsules (sCT plus Dmt-DALDA with citric acid and lauroyl carnitine), non-enteric coated or enteric coated, in fasted beagle dogs (plasma; ELISA for sCT, HPLC-MS for Dmt-DALDA)",
  "assay_type": "in vivo",
  "details": "for AUC / Cmax: normalized to a 1 mg dose; for Tmax / Cmax: beagle, dog, plasma, oral; for plasma peptide concentration normalized to a 1 mg dose: enteric coated capsule",
  "experimental": "A second series of tests was carried out, as noted above, using beagle dogs. […] In the experiments represented in FIGS. 2A and 2B, size 00 […] capsules were each filled with 758 mg of a powdered blend consisting of citric acid (643 mg), lauroyl carnitine (66 mg), talc (33 mg), salmon calcitonin (sCT) (13 mg) and Dmt-DALDA (2.4 mg). Half of the capsules were coated with an enteric coating solution of L30D-55, while the remaining 50% of the capsules were not coated. Four fasted dogs were each given 1 uncoated capsule, and 2 weeks later they were each given an enteric coated capsule. After administration of each capsule, samples of blood were taken at 15 minute intervals from an indwelling catheter for up to 4 hours. The blood samples were centrifuged and the resulting plasma supernatants were stored frozen at −20° C. The plasma samples were subsequently analyzed for sCT by a direct ELISA, and for Dmt-DALDA by HPLC-mass spectrometry performed as set forth in Wan, H. and Desiderio, D., Quantitation of [DMT^1] DALDA in ovine plasma by on-line liquid chromatography/quadrapole time-of-flight mass spectrometry, Rapid Communications in Mass Spectrometry, 2003; 17, 538-546, the contents of which are incorporated herein by reference.\nThe results summarized in FIGS. 2A and 2B as plasma peptide concentration normalized to a 1 mg dose as a function of time relative to the average Tmax, (i.e., the time at which the maximum amount of peptide was detected) indicate that both peptides, i.e., sCT and Dmt-DALDA, were detected in dogs given uncoated or enteric coated capsules. […] Table DI (below) sets forth the values upon which the curves in FIGS. 2A and 2B are based. The results are summarized in the tables as plasma peptide concentration normalized to a 1 mg dose as a function of time. Table III, moreover, provides the standard deviations for the data obtained regarding each of the test dogs, which standard deviations are also indicated in FIGS. 2A and 2B.\nTable IV (below) summarizes the pharmacokinetic parameters in dogs of orally administered sCT and Dmt-DALDA when administered in non-enteric coated versus enteric coated capsules. Peptide was not detected from 1 dog in each group due to (a) Dog 3 vomiting the uncoated capsule and (b) delayed gastric emptying in Dog 2 provided with an enteric coated capsule. Cmax and AUC are as defined with regard to Table H above.",
  "key": {"[1]": {"details": "Non-Enteric Capsule, Avg (n = 3)"}},
  "data": [
    {"compound": "CC(C)C[C@H](NC(=O)[C@H](CCCCN)NC(=O)CNC(=O)[C@H](CC(C)C)NC(=O)[C@@H](NC(=O)[C@@H]1CSSC[C@H](N)C(=O)N[C@@H](CO)C(=O)N[C@@H](CC(N)=O)C(=O)N[C@@H](CC(C)C)C(=O)N[C@@H](CO)C(=O)N[C@@H]([C@@H](C)O)C(=O)N1)C(C)C)C(=O)N[C@@H](CO)C(=O)N[C@@H](CCC(N)=O)C(=O)N[C@@H](CCC(=O)O)C(=O)N[C@@H](CC(C)C)C(=O)N[C@@H](Cc1c[nH]cn1)C(=O)N[C@@H](CCCCN)C(=O)N[C@@H](CC(C)C)C(=O)N[C@@H](CCC(N)=O)C(=O)N[C@H](C(=O)N[C@@H](Cc1ccc(O)cc1)C(=O)N1CCC[C@H]1C(=O)N[C@@H](CCCNC(=N)N)C(=O)N[C@H](C(=O)N[C@@H](CC(N)=O)C(=O)N[C@H](C(=O)NCC(=O)N[C@@H](CO)C(=O)NCC(=O)N[C@H](C(=O)N1CCC[C@H]1C(N)=O)[C@@H](C)O)[C@@H](C)O)[C@@H](C)O)[C@@H](C)O", "note": "[sCT, salmon calcitonin]", "values": [
      {"measurement": "AUC", "setting": "Enteric Capsule, Avg (n = 3)", "value": 788317, "unit": "pg/mL-min"},
      {"measurement": "AUC", "setting": "Enteric Capsule, Dog 1", "value": 1178504, "unit": "pg/mL-min"},
      {"measurement": "AUC", "setting": "Enteric Capsule, Dog 2 (delayed gastric emptying)", "value": 0, "unit": "pg/mL-min"},
      {"measurement": "AUC", "setting": "Enteric Capsule, Dog 3", "value": 522432, "unit": "pg/mL-min"},
      {"measurement": "AUC", "setting": "Enteric Capsule, Dog 4", "value": 664016, "unit": "pg/mL-min"},
      {"measurement": "AUC", "setting": "[1]", "value": 69539, "unit": "pg/mL-min"},
      {"measurement": "AUC", "setting": "Non-Enteric Capsule, Dog 1", "value": 79620, "unit": "pg/mL-min"},
      {"measurement": "AUC", "setting": "Non-Enteric Capsule, Dog 2", "value": 103772, "unit": "pg/mL-min"},
      {"measurement": "AUC", "setting": "Non-Enteric Capsule, Dog 3 (vomited capsule)", "value": 0, "unit": "pg/mL-min"},
      {"measurement": "AUC", "setting": "Non-Enteric Capsule, Dog 4", "value": 25227, "unit": "pg/mL-min"},
      {"measurement": "Tmax", "setting": "Enteric Capsule, Avg (n = 3)", "value": 105, "unit": "min"},
      {"measurement": "Cmax", "setting": "Enteric Capsule, Avg (n = 3)", "value": 17.2, "unit": "ng/mL"},
      {"measurement": "Cmax", "setting": "Enteric Capsule, Dog 1", "value": 25.1, "unit": "ng/mL"},
      {"measurement": "Tmax", "setting": "Enteric Capsule, Dog 3", "value": 135, "unit": "min"},
      {"measurement": "Cmax", "setting": "Enteric Capsule, Dog 3", "value": 13.2, "unit": "ng/mL"},
      {"measurement": "Tmax", "setting": "Enteric Capsule, Dog 4", "value": 120, "unit": "min"},
      {"measurement": "Cmax", "setting": "Enteric Capsule, Dog 4", "value": 13.1, "unit": "ng/mL"},
      {"measurement": "Tmax", "setting": "[1]", "value": 30, "unit": "min"},
      {"measurement": "Cmax", "setting": "[1]", "value": 2.26, "unit": "ng/mL"},
      {"measurement": "Tmax", "setting": "Non-Enteric Capsule, Dog 1", "value": 30, "unit": "min"},
      {"measurement": "Cmax", "setting": "Non-Enteric Capsule, Dog 1", "value": 2.65, "unit": "ng/mL"},
      {"measurement": "Tmax", "setting": "Non-Enteric Capsule, Dog 2", "value": 30, "unit": "min"},
      {"measurement": "Cmax", "setting": "Non-Enteric Capsule, Dog 2", "value": 3.15, "unit": "ng/mL"},
      {"measurement": "Tmax", "setting": "Non-Enteric Capsule, Dog 4", "value": 30, "unit": "min"},
      {"measurement": "Cmax", "setting": "Non-Enteric Capsule, Dog 4", "value": 0.971, "unit": "ng/mL"},
      {"measurement": "Cmax and AUC, enteric coated capsules versus non enteric-coated capsules", "setting": "dogs", "value": "significantly enhanced"},
      {"measurement": "amount of peptide detected in plasma, enteric coated capsules vs non-coated capsules", "setting": "dogs", "value": "nearly eight times as much"},
      {"measurement": "time at which the maximum concentration was seen", "setting": "dogs given coated capsules", "value": 105, "unit": "min"},
      {"measurement": "time at which the maximum concentration was seen", "setting": "dogs given uncoated capsules", "value": 30, "unit": "min"},
      {"measurement": "plasma peptide concentration normalized to a 1 mg dose", "setting": "Dog 1, 0 min", "value": 0, "unit": "pg/mL"},
      {"measurement": "plasma peptide concentration normalized to a 1 mg dose", "setting": "Dog 1, 15 min", "value": 0, "unit": "pg/mL"},
      {"measurement": "plasma peptide concentration normalized to a 1 mg dose", "setting": "Dog 1, 30 min", "value": 407, "unit": "pg/mL"},
      {"measurement": "plasma peptide concentration normalized to a 1 mg dose", "setting": "Dog 1, 45 min", "value": 22650, "unit": "pg/mL"},
      {"measurement": "plasma peptide concentration normalized to a 1 mg dose", "setting": "Dog 1, 60 min", "value": 25136, "unit": "pg/mL"},
      {"measurement": "plasma peptide concentration normalized to a 1 mg dose", "setting": "Dog 1, 75 min", "value": 6444, "unit": "pg/mL"},
      {"measurement": "plasma peptide concentration normalized to a 1 mg dose", "setting": "Dog 1, 90 min", "value": 8167, "unit": "pg/mL"},
      {"measurement": "plasma peptide concentration normalized to a 1 mg dose", "setting": "Dog 1, 105 min", "value": 4344, "unit": "pg/mL"},
      {"measurement": "plasma peptide concentration normalized to a 1 mg dose", "setting": "Dog 1, 120 min", "value": 3193, "unit": "pg/mL"},
      {"measurement": "plasma peptide concentration normalized to a 1 mg dose", "setting": "Dog 1, 135 min", "value": 2710, "unit": "pg/mL"},
      {"measurement": "plasma peptide concentration normalized to a 1 mg dose", "setting": "Dog 1, 150 min", "value": 1706, "unit": "pg/mL"},
      {"measurement": "plasma peptide concentration normalized to a 1 mg dose", "setting": "Dog 1, 165 min", "value": 1283, "unit": "pg/mL"},
      {"measurement": "plasma peptide concentration normalized to a 1 mg dose", "setting": "Dog 1, 180 min", "value": 1301, "unit": "pg/mL"},
      {"measurement": "plasma peptide concentration normalized to a 1 mg dose", "setting": "Dog 1, 195 min", "value": 459, "unit": "pg/mL"},
      {"measurement": "plasma peptide concentration normalized to a 1 mg dose", "setting": "Dog 1, 210 min", "value": 347, "unit": "pg/mL"},
      {"measurement": "plasma peptide concentration normalized to a 1 mg dose", "setting": "Dog 2 (delayed gastric emptying), 0 min", "value": 0, "unit": "pg/mL"},
      {"measurement": "plasma peptide concentration normalized to a 1 mg dose", "setting": "Dog 2 (delayed gastric emptying), 15 min", "value": 0, "unit": "pg/mL"},
      {"measurement": "plasma peptide concentration normalized to a 1 mg dose", "setting": "Dog 2 (delayed gastric emptying), 30 min", "value": 0, "unit": "pg/mL"},
      {"measurement": "plasma peptide concentration normalized to a 1 mg dose", "setting": "Dog 2 (delayed gastric emptying), 45 min", "value": 0, "unit": "pg/mL"},
      {"measurement": "plasma peptide concentration normalized to a 1 mg dose", "setting": "Dog 2 (delayed gastric emptying), 60 min", "value": 0, "unit": "pg/mL"},
      {"measurement": "plasma peptide concentration normalized to a 1 mg dose", "setting": "Dog 2 (delayed gastric emptying), 75 min", "value": 0, "unit": "pg/mL"},
      {"measurement": "plasma peptide concentration normalized to a 1 mg dose", "setting": "Dog 2 (delayed gastric emptying), 90 min", "value": 0, "unit": "pg/mL"},
      {"measurement": "plasma peptide concentration normalized to a 1 mg dose", "setting": "Dog 2 (delayed gastric emptying), 105 min", "value": 0, "unit": "pg/mL"},
      {"measurement": "plasma peptide concentration normalized to a 1 mg dose", "setting": "Dog 2 (delayed gastric emptying), 120 min", "value": 0, "unit": "pg/mL"},
      {"measurement": "plasma peptide concentration normalized to a 1 mg dose", "setting": "Dog 2 (delayed gastric emptying), 135 min", "value": 0, "unit": "pg/mL"},
      {"measurement": "plasma peptide concentration normalized to a 1 mg dose", "setting": "Dog 2 (delayed gastric emptying), 150 min", "value": 0, "unit": "pg/mL"},
      {"measurement": "plasma peptide concentration normalized to a 1 mg dose", "setting": "Dog 2 (delayed gastric emptying), 165 min", "value": 0, "unit": "pg/mL"},
      {"measurement": "plasma peptide concentration normalized to a 1 mg dose", "setting": "Dog 2 (delayed gastric emptying), 180 min", "value": 0, "unit": "pg/mL"},
      {"measurement": "plasma peptide concentration normalized to a 1 mg dose", "setting": "Dog 2 (delayed gastric emptying), 195 min", "value": 0, "unit": "pg/mL"},
      {"measurement": "plasma peptide concentration normalized to a 1 mg dose", "setting": "Dog 2 (delayed gastric emptying), 210 min", "value": 0, "unit": "pg/mL"},
      {"measurement": "plasma peptide concentration normalized to a 1 mg dose", "setting": "Dog 3, 0 min", "value": 0, "unit": "pg/mL"},
      {"measurement": "plasma peptide concentration normalized to a 1 mg dose", "setting": "Dog 3, 15 min", "value": 0, "unit": "pg/mL"},
      {"measurement": "plasma peptide concentration normalized to a 1 mg dose", "setting": "Dog 3, 30 min", "value": 0, "unit": "pg/mL"},
      {"measurement": "plasma peptide concentration normalized to a 1 mg dose", "setting": "Dog 3, 45 min", "value": 0, "unit": "pg/mL"},
      {"measurement": "plasma peptide concentration normalized to a 1 mg dose", "setting": "Dog 3, 60 min", "value": 0, "unit": "pg/mL"}
    ]}
  ]
}
